From patent US4902720A (priority 1988, dated 1990)
Like-named read-outs stand apart in the source and are kept apart here.

Experiments:
HSV-2 (333 strain) = details: for % plaque inhibition: 2 hours pre-incubation
Procedure: In Series No. 1 of Example No. 1, monolayer cultures of Vero, RK-13 (rabbit kidney), and WISH (human amnion, Hayflick) cells were used in the experiments of Example No. 1. The cells were grown in Basal Minimal Eagle's Media supplemented with 5% fetal calf serum, 1% glutamine, sodium bicarbote and antibiotics. Cultures were maintained in a maintenance media that was the same media, except that the maintenance media contained 2% fetal calf serum. An F Strain of HSV-1 was chosen because it is a well-known prototype of HSV-1. This F Strain can be obtained from the American Type Culture Collection (ATCC), 12301 Parklawn Drive, Rockville, MD 20852, at which it is identified as ATC-VR 733. For studies with HSV-2, a G strain of HSV-2 (ATCC-VR 734) and a 333 strain of HSV-2 were selected. These strains also can be obtained from the ATCC.
Two methods were used to test the drug's effectiveness in the suppression of viral growth. In the pre-inoculation experiments, the drug was added after adsorption of the virus. In the pre-incubation experiments, the drug was added prior to infection of the cell cultures.
Accordingly, the pre-inoculation experiments measured the effect of the drug on a cell that was already infected with the virus. The pre-incubation experiments measured the cell cultures that were treated with the drug prior to the inoculation to determine if these cells then would be permissive or non-permissive to the tested virus. In these experiments, plaque reduction assays provided a quantitative measure of antiviral activity and was deemed to be reliable and objective.
In the pre-incubation experiments, the media was either decanted or gently aspirated from the cultures. After decanting or aspirating, 1 ml of the drug dilution plus maintenance media was added to the cultures. The cultures that served as virus controls or cell controls received 2 ml of maintenance media. After the pre-treatment period, the media was again aspirated and the cell cultures were infected with the virus.
When this occurred, the cultures were fixed and stained with crystal violet. The plaque were then carefully counted under the microscope. By such a counting and careful comparison, percentages of plaque inhibition in the treated cultures were then calculated.
The 333 strain, which can be obtained from ATCC, was used.

HSV-1 and HSV-2 = assay type: cell-based
HSV-1 (McKrae strain) [1] = details: for No. of Plaques: virus controls 270, 270, 252
Procedure: All cultures were incubated at 37° C. in a 5% CO2 humidified atmosphere. The cultures were stained with crystal violet to aid in counting the plaque.

HSV-2 = tested on: HSV-2
Procedure: Female guinea pigs (obtained from Charles River, Inc.) weighing approximately 200 g were used as a model for HSV-2 skin lesions. The animals were anesthetized with 0.15 ml of Ketamine-Rompum mixture. The animals were first shaved on their back with a hair clipper and then treated with a depilatory cream (Nair). The denuded area was washed well and then dried. A tuberculin tyne was washed with ethanol and air dried.
Two methods were tried for infecting the animals with the virus. In one, a drop of HSV-2 suspension was placed on the skin and the skin was punctured with the tyne. In the second method, the tyne was dipped in the virus suspension before puncturing the skin.
In the first experiment, each of 3 guinea pigs was infected on three areas of their backs. At 3 days post infection, treatment was begun on one side of each animal, leaving the other side untreated as a control.
The animals were examined daily for vesicles (V), crust (C) and for erythema (R) alone.
In the next experiment, 6 guinea pigs were infected in the same manner as the initial 3 guinea pigs. Treatment was begun 12-16 hours post infection. […] Lesions showing an erythematous base with either a blister or a crust on top were considered to be HSV specific. […] Both the control animals and treated animals were carefully read in the same manner.

HSV-1 (F strain) [2] = details: 2.5 mg/ml TEAC
HSV-1 (F strain) [3] = details: for % plaque inhibition B: Exp. 1D
HSV-1 (McKrae strain) [4] = tested on: HSV-1 (McKrae strain)
HSV-1 = assay: microbe, parasite or virus in culture; details: read-out: % Reduction

Structure (SMILES): CC[N+](CC)(CC)CC.[Cl-] [TEAC, tetraethylammonium chloride]
- % plaque inhibition (HSV-2 (333 strain); 6.25 mg/culture): 0%
- % plaque inhibition (HSV-2 (333 strain); 12.50 mg/culture): 25%
- % plaque inhibition (HSV-2 (333 strain); 25.00 mg/culture): 42%
- % plaque inhibition (HSV-2 (333 strain); 50.00 mg/culture): 56%
- sensitivity of HSV-2 (333 strain) to TEAC vs HSV-1 (HSV-2 (333 strain); based on Table 6): even more sensitive to TEAC than HSV-1
- permissiveness of cells to virus (HSV-1 and HSV-2; TEAC added before viral inoculation, time and dosage dependent): rendered the cells non-permissive to the virus and no plaque formed
- in vitro replication of HSV-1 and HSV-2 (HSV-1 and HSV-2; summary): inhibited the in vitro replication of HSV-1 and HSV-2
- plaque number and size (HSV-1 and HSV-2; summary): not only by the reduced number of plaque, but also by their reduced size
- No. of Plaques (HSV-1 (McKrae strain) [1]; 3.125 mg/ml): 247
- No. of Plaques (HSV-1 (McKrae strain) [1]; 6.250 mg/ml): 286
- No. of Plaques (HSV-1 (McKrae strain) [1]; 12.500 mg/ml): 300
- appearance of monolayer (HSV-1 (McKrae strain) [1]; 25 mg/ml): thinned out appearance
- No. of Plaques (HSV-1 (McKrae strain) [1]; 25.000 mg/ml): 0
- effectiveness in plaque inhibition (HSV-1 (McKrae strain) [1]; concentrations below 25 mg/ml): not significantly effective in achieving plaque inhibition
- number and size of lesions (HSV-2; TEAC from 12-16 hours P.I.): significant reduction in the number of lesions, but also in their size
- rupture and crusting of lesions (HSV-2; TEAC from 12-16 hours P.I.): the lesions neither ruptured nor crusted
- number and appearance of lesions, treated vs control (HSV-2; TEAC ointment from 12-16 hours P.I.): marked difference between the two groups, not only in the number of lesions but also in their appearance
- Percent Reduction of lesions (HSV-2; TEAC ointment from 12-16 hours P.I., day 3 P.I.): 21.0%
- # of lesions (HSV-2; TEAC ointment from 12-16 hours P.I., day 3 P.I., control 19): 15 lesions
- Percent Reduction of lesions (HSV-2; TEAC ointment from 12-16 hours P.I., day 4 P.I.): 27.5%
- # of lesions (HSV-2; TEAC ointment from 12-16 hours P.I., day 4 P.I., control 40): 29 lesions
- Percent Reduction of lesions (HSV-2; TEAC ointment from 12-16 hours P.I., day 5 P.I.): 58.5%
- # of lesions (HSV-2; TEAC ointment from 12-16 hours P.I., day 5 P.I., control 41): 17 lesions
- Percent Reduction of lesions (HSV-2; TEAC ointment from 12-16 hours P.I., day 6 P.I.): 58.3%
- # of lesions (HSV-2; TEAC ointment from 12-16 hours P.I., day 6 P.I., control 36): 15 lesions
- dermatitis (rash) (HSV-2; day 4 after treatment, TEAC or its vehicle or both): a rash appeared
- size of the plaque vs control (HSV-1 (F strain) [2]): appreciably smaller
- average number of plaque (HSV-1 (F strain) [2]; 1 ml + 4 ml media, after adsorption, control 488.5): 75.5 plaque
- % plaque inhibition (HSV-1 (F strain) [3]; Exp. 1C, 3 hours pre-incubation, 2.5 mg/culture): 10%
- % plaque inhibition (HSV-1 (F strain) [3]; Exp. 1C, 3 hours pre-incubation, 5.0 mg/culture): 22%
- % plaque inhibition (HSV-1 (F strain) [3]; Exp. 1C, 3 hours pre-incubation, 10.0 mg/culture): 71%
- % plaque inhibition B (HSV-1 (F strain) [3]; 3 hours pre-incubation, 12.5 mg/culture): 80%
- % plaque inhibition B (HSV-1 (F strain) [3]; 3 hours pre-incubation, 25.0 mg/culture): 79%
- % plaque inhibition B (HSV-1 (F strain) [3]; 3 hours pre-incubation, 50.0 mg/culture): 82%
- % plaque inhibition B (HSV-1 (F strain) [3]; 3 hours pre-incubation, 100.0 mg/culture): 79%
- % plaque inhibition (HSV-1 (F strain) [3]; Exp. 1E, 2 hours pre-incubation, 6.25 mg/culture): 0%
- % plaque inhibition (HSV-1 (F strain) [3]; Exp. 1E, 2 hours pre-incubation, 12.50 mg/culture): 18%
- % plaque inhibition (HSV-1 (F strain) [3]; Exp. 1E, 2 hours pre-incubation, 25.00 mg/culture): 17%
- % plaque inhibition (HSV-1 (F strain) [3]; Exp. 1E, 2 hours pre-incubation, 50.00 mg/culture): 24%
- % plaque inhibition (HSV-1 (F strain) [3]; Exp. 1E, 2 hours pre-incubation, 100.00 mg/culture): 68%
- % plaque inhibition (HSV-1 (F strain) [3]; Exp. 1E, 4 hours pre-incubation, 6.25 mg/culture): less than 20%
- % plaque inhibition (HSV-1 (F strain) [3]; Exp. 1E, 4 hours pre-incubation, 12.50 mg/culture): less than 20%
- % plaque inhibition (HSV-1 (F strain) [3]; Exp. 1E, 4 hours pre-incubation, 25.00 mg/culture): 37.5%
- % plaque inhibition (HSV-1 (F strain) [3]; Exp. 1E, 4 hours pre-incubation, 50.00 mg/culture): 63%
- appearance of cell layer (HSV-1 (F strain) [3]; Exp. 1E, 4 hours pre-incubation, 100.00 mg/culture): thin
- % plaque inhibition (HSV-1 (F strain) [3]; Exp. 1E, 4 hours pre-incubation, 100.00 mg/culture, cell layer thin): 100%
- % plaque inhibition (HSV-1 (F strain) [3]; Exp. 1E, 7 hours pre-incubation, 6.25 mg/culture): 50%
- % plaque inhibition (HSV-1 (F strain) [3]; Exp. 1E, 7 hours pre-incubation, 12.50 mg/culture): 76%
- % plaque inhibition (HSV-1 (F strain) [3]; Exp. 1E, 7 hours pre-incubation, 25.00 mg/culture): 96.5%
- % plaque inhibition (HSV-1 (F strain) [3]; Exp. 1E, 7 hours pre-incubation, 50.00 mg/culture): 95.7%
- appearance of cell layer (HSV-1 (F strain) [3]; Exp. 1E, 7 hours pre-incubation, 100.00 mg/culture): thin
- % plaque inhibition (HSV-1 (F strain) [3]; Exp. 1E, 7 hours pre-incubation, 100.00 mg/culture, cell layer thin): 100%
- number of cells containing intranuclear dense bodies vs control (HSV-1 (McKrae strain) [4]; 6 hours post infection): no striking difference
- No. of cells with internuclear dense bodies (HSV-1 (McKrae strain) [4]; TEAC treated, 24 hours P.I., 300 cells examined, control 0 of 50): 12
- No. of cells with virus particles (HSV-1 (McKrae strain) [4]; TEAC treated, 24 hours P.I., 300 cells examined, control 50 of 50): 8
- Total % (HSV-1 (McKrae strain) [4]; TEAC treated, 24 hours P.I., control 100%): 6%
- size of nucleocapsids (HSV-1 (McKrae strain) [4]; TEAC-treated cells, 24 hours post infection): about 99.6 A
- appearance of cell layers (vaccinia): thin
- plaque (vaccinia): did not have any plaque
- inhibition at 20000 µg/mL (HSV-1; Human alphaherpesvirus 1, 4 h): 25%
- inhibition at 20000 µg/mL (HSV-1; Human alphaherpesvirus 1, 6 h): 57%
- inhibition at 20000 µg/mL (HSV-1; Human alphaherpesvirus 1, 8 h): 69%
- inhibition at 20000 µg/mL (HSV-1; Human alphaherpesvirus 1, 10 h): 88%
